In the NIST ThermoML archive (doi:10.1016/j.tca.2013.05.030):

Experiment: mn = molality of the nth substance listed, in mol/kg
Details: 101 kPa, Liquid; for viscosity: Capillary tube (Ostwald / Ubbelohde) method; for mass density: Pycnometric method; for speed of sound: Sing-around technique in a fixed-path interferometer

CC(C)Cc1ccc(C(C)C(=O)[O-])cc1.[Na+] (stereo not given) [sodium ibuprofen] + O
Details	mass density [kg/m3]	speed of sound [m/s]	viscosity [mPa·s]
298.15 K, m1 = 0.1048	1001.4	1512.8	0.973
298.15 K, m1 = 0.1525	1003.2	1518.4	1.007
298.15 K, m1 = 0.2231	1005.8	1525.6	1.07
298.15 K, m1 = 0.3179	1009.1	1533.2	1.173
298.15 K, m1 = 0.3721	1010.9	1536.4	1.242
298.15 K, m1 = 0.4422	1013.1	1540	1.342
298.15 K, m1 = 0.4678	1013.9	1540.8	1.381
303.15 K, m1 = 0.1048	999.9	1523.6	0.867
303.15 K, m1 = 0.1525	1001.7	1528.4	0.897
303.15 K, m1 = 0.2231	1004.3	1534.4	0.953
303.15 K, m1 = 0.3179	1007.5	1540.8	1.043
303.15 K, m1 = 0.3721	1009.3	1543.2	1.104
303.15 K, m1 = 0.4422	1011.5	1546.4	1.194
303.15 K, m1 = 0.4678	1012.3	1547.2	1.228
308.15 K, m1 = 0.1048	998.2	1532	0.78
308.15 K, m1 = 0.1525	1000	1536.4	0.808
308.15 K, m1 = 0.2231	1002.5	1542	0.857
308.15 K, m1 = 0.3179	1005.7	1548	0.937
308.15 K, m1 = 0.3721	1007.4	1550.8	0.992
308.15 K, m1 = 0.4422	1009.6	1553.6	1.072
308.15 K, m1 = 0.4678	1010.4	1554.4	1.104
313.15 K, m1 = 0.1048	996.3	1539.2	0.707
313.15 K, m1 = 0.1525	998	1542.8	0.732
313.15 K, m1 = 0.2231	1000.5	1547.6	0.777
313.15 K, m1 = 0.3179	1003.6	1552.8	0.848
313.15 K, m1 = 0.3721	1005.3	1555.2	0.898
313.15 K, m1 = 0.4422	1007.4	1557.2	0.969
313.15 K, m1 = 0.4678	1008.1	1558	0.997

O [water] + CC(C)Cc1ccc(C(C)C(=O)[O-])cc1.[Na+]
Details	speed of sound [m/s]
313.15 K, m2 = 0	1528.8
